Patent US6727284B2 (priority 1997, dated 2004)
“Also recorded” adds a separate entry of the source.

Tests used:
[1] = Plasma DCA levels by HPLC in pediatric patients given bolus plus 24 h infusion after cardiopulmonary bypass; type: in vivo, human; settings: bolus 100 mg/kg into proximal aorta, then infusion 12.5 mg/kg/hr for 24 hours, therapeutic range 0.2-1 mM, FIG. 1
Protocol: This example describes the use of dichloroacetate administered in a bolus followed by infusion for 24 hrs in pediatric patients after cardiopulmonary bypass.
DCA, in a bolus of 100 mg/kg of 10 mg/ml solution ([…] bolus) is injected into the proximal aorta immediately prior to discontinuing the aortic cross-clamp. Immediately thereafter, an infusion of DCA at 12.5 mg/kg/hr is initiated and run for 24 hours or longer. Based on the pharmacokinetics of DCA, this dosage regiment is designed to continuous maintain plasma levels of DCA in the therapeutic range of [0.2-1 mM]—in contrast to transient therapeutic levels.
Blood samples are collected from the indwelling lines of patients in citrate-containing tubes. These samples are centrifuged to separate the plasma and frozen. The frozen samples are later analyzed for DCA concentration by using a high performance liquid chromatography technique (HPLC). See generally Thannikkuto et al., “Dichloracetate (DCA) stimulates pyruvate dehydrogenase complex (PDC) activity in hearts of patients undergoing coronary artery bypass grafting (CABG)” Can. J. Cardiol. 10(suppl. C):130C (1994). Briefly, the analysis was performed on a lonoSpher A (250×4.6 mm L X ID) column accompanied by a guard column AX. Both of the columns were purchased from Chrompack Canada. The mobile phase used was 10^−3 M pyromellitate buffer (pH 3.8-4.0) at a flow rate of […]. […]

[2] = Side-effects of dichloroacetate in patients; type: in vivo, human
Source text: Higher dosages are permitted.

[3] = cited from earlier work

O=C(O)C(Cl)Cl [dichloroacetate]
patient blood (plasma) levels of dichloroacetate [1]: continuously maintained patient blood levels of dichloroacetate in the therapeutic range | patient blood (plasma) levels of dichloroacetate ([1]; listed as dichloro acetate): maintained. at high (and therefore therapeutic) levels over a 24 hour period | side-effects [2]: does not have significant sideeffects; also recorded: some patients experience mild drowsiness | half-life ([3]; in vivo): approximately 40 minutes | time blood levels stay in the therapeutic range ([3]; single bolus administration): less than one hour
